Consider 48 compounds from BindingDB's records for patent US20250313563 (The Broad Institute, 2025).

Where “and” joins values, the source holds several entries; their conditions need not be identical. Equal entries are not always repeated. Some results are limits rather than exact numbers.

Assay [1] concerns the target Glycogen synthase kinase-3 beta (Homo sapiens, UniProt P49841). Description: TR-FRET Assay. How it is done:
(§1) The assay was performed in a white, 384 well, low volume, flat bottom plate (Grenier). […] The kinase activity was quenched with 2 μL of 250 mM EDTA. A 10 μL volume of 40 nM Strepavidin-d2, 2 nM Tb2+-pSer641 antibody in TR-FRET Detection Buffer (Invitrogen) was then added.

Assay [2] deals with Glycogen synthase kinase-3 alpha (Homo sapiens, UniProt P49840). Description: TR-FRET Assay. The method, then: as §1
Glycogen synthase kinase-3 alpha, sequence (P49840 whole entry): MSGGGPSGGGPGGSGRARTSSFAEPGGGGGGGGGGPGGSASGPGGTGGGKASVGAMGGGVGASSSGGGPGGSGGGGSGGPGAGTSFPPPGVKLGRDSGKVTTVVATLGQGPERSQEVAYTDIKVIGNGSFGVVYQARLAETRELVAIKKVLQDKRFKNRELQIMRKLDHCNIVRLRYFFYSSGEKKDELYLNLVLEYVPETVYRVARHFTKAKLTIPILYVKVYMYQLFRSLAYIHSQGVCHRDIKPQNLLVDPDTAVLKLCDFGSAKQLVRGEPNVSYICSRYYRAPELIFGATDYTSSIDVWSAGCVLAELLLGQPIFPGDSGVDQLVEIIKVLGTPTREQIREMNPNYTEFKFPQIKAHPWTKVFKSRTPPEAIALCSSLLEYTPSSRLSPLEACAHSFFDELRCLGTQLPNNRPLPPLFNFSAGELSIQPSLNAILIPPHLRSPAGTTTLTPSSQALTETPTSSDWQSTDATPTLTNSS

Glycogen synthase kinase-3 beta, sequence (P49841 whole entry): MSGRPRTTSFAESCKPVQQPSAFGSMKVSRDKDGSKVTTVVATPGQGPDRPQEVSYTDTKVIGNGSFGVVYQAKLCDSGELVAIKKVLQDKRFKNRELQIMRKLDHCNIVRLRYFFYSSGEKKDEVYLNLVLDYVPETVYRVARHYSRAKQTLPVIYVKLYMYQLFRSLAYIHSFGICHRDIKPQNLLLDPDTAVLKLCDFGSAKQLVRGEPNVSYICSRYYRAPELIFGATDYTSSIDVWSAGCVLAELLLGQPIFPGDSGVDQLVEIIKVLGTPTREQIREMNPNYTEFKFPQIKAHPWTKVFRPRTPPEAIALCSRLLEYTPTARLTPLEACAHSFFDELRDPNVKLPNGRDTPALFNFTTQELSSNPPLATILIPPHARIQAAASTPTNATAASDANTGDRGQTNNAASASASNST

With `CCC1(c2cccc(N(C)c3nccc(OC)n3)c2)C2=CN=NC2NC2=C1C(=O)CC(C)(C)C2` (configuration not stated) [US20250313563, Compound 929387], the IC50 in assay [1] and in assay [2] was under 100 nM each time.
As for `CC[C@]1(c2cccc(-c3c(F)cncc3Cl)c2)C2=CN=NC2NC2=C1C(=O)NC(C)(C)C2` (some centres not stated) [US20250313563, Compound 948363], the figures for the IC50 in assay [1] and in assay [2] were over 5000 nM and 1000 to 5000 nM, respectively.
For `CC[C@@]1(c2cccc(-c3cnn(C)c3)c2)C2=C(CC(C)(C)NC2=O)NC2N=NC(C(F)(F)F)=C21` (some centres not stated) [US20250313563, Compound 947877], the IC50 (as a rule, the concentration that gives 50% inhibition) in assay [1] was < 100 nM and 100 to 1000 nM; in assay [2], under 100 nM.
Take `CC1(C)CC(=O)C2=C(C1)NC1N=NC=C1C21CC2(CCOCC2)C1` (configuration not stated) [US20250313563, Compound 874534]: the IC50 in assay [1] was < 100 nM and 100 to 1000 nM; in assay [2], < 100 nM and 100 to 1000 nM.
For `CC[C@]1(c2cccc(N(C)c3cccc(F)n3)c2)C2=CN=NC2NC2=C1C(=O)CC(C)(C)C2` (some centres not stated) [US20250313563, Compound 932636], the IC50 in assay [1] and in assay [2] was under 100 nM each time.
`CCC1(c2cccc(N3CCCC[C@@H]3C)c2)C2=CN=NC2NC2=C1C(=O)CC(C)(C)C2` (some centres not stated) [US20250313563, Compound 885217]: the concentration for half-maximal inhibition (IC50) in assay [1] and in assay [2] was 100 to 1000 nM in each case.
Take `CC1(C)CC(=O)C2=C(C1)NC1=C(CN=N1)C21COC2(CN(C(=O)C3(F)CCCC3)C2)C1` (configuration not stated) [US20250313563, Compound 947277]: the concentration for half-maximal inhibition (IC50) in assay [1] and in assay [2] was under 100 nM throughout.
In the case of `CC1(C)CC(=O)C2=C(C1)NC1N=NC=C1[C@]21CCCc2c(-c3ccncc3)cccc21` (some centres not stated) [US20250313563, Compound 945548], the half-inhibitory concentration (IC50) in assay [1] and in assay [2] was under 100 nM in each case.
As to `CC[C@]1(c2cccc(C(F)(F)F)c2)C2=CN=NC2NC2=C1C(=O)N[C@H](C)C2` (some centres not stated) [US20250313563, Compound 912096], the IC50 in assay [1] is 100 to 1000 nM; in assay [2], under 100 nM.
The corresponding values for `CCC1(c2cccc(C(F)(F)F)c2)C2=C(N=NC2)NC2=C1C(=O)NC2` (configuration not stated) [US20250313563, Compound 913156] are over 5000 nM and 100 to 1000 nM.
The corresponding values for `CCC1(c2ccccc2)C2=C(N=NC2)NC(C)=C1C(C)=O` (configuration not stated) [US20250313563, Compound 806940] are over 5000 nM and over 5000 nM.
`CC[C@]1(c2cccc(-c3ccncc3C(F)(F)F)c2)C2=C(N=NC2)NC2=C1C(=O)C(C)(C)C2` [US20250313563, Compound 952759]: the concentration for half-maximal inhibition (IC50) was < 100 nM and 1000 to 5000 nM in assay [1]; < 100 nM and 100 to 1000 nM in assay [2].
For the compound `CCC1(c2cccc(-c3cnn4c3CCCC4)c2)C2=C(CC(C)(C)NC2=O)NC2N=NC(C(F)(F)F)=C21` (configuration not stated) [US20250313563, Compound 947801], the IC50 in assay [1] and in assay [2] was under 100 nM each time.
As for `O=C1C2=C(NC3N=NC=C3C23CCOCC3)[C@@H]2CC[C@H]1C2` (some centres not stated) [US20250313563, Compound 912081], the IC50 in assay [1] fell in the range of 1000 to 5000 nM; in assay [2], 100 to 1000 nM.
Consider `CC[C@@]1(c2cccc(N(C)c3cnccn3)c2)C2=CN=NC2NC2=C1C(=O)CC(C)(C)C2` (some centres not stated) [US20250313563, Compound 915340], for which the results for the IC50 in assay [1] and in assay [2] were 1000 to 5000 nM and 100 to 1000 nM, respectively.
As to `CC(C)n1cc(S(=O)(=O)N2CCC3(CC2)C2=C(N=NC2)NC2=C3C(=O)CC(C)(C)C2)cn1` [US20250313563, Compound 947607], the IC50 in assay [1] and in assay [2] was under 100 nM each time.
For `CCC1(c2cccc(N(C)c3ccccn3)c2)C2=CN=NC2NC2=C1C(=O)CC(C)(C)C2` (configuration not stated) [US20250313563, Compound 874294], the half-inhibitory concentration (IC50) in assay [1] is 100 to 1000 nM; in assay [2] it was under 100 nM.
The corresponding values for `CC1N=NC2=C1C1(CC3(CCC3)C1)C1=C(CC(C)(C)CC1=O)N2` (configuration not stated) [US20250313563, Compound 877295] are over 5000 nM and over 5000 nM.
For `CCC1(c2cccc(N3CCOCC3)c2)C2=CN=NC2NC2=C1C(=O)CC(C)(C)C2` (configuration not stated) [US20250313563, Compound 801318] the same measures were over 1670 nM and 100 to 1000 nM.
With `COCc1cccc(S(=O)(=O)N2CCC3(CC2)C2=C(N=NC2)NC2=C3C(=O)CC(C)(C)C2)c1` [US20250313563, Compound 947605], the IC50 in assay [1] and in assay [2] was under 100 nM throughout.
Turning to `CC[C@]1(c2cccc(C(F)(F)F)c2)C2=C(N=NC2)NC2=C1C(=O)N(C)C2` [US20250313563, Compound 945367], the values for the IC50 in assay [1] and in assay [2] were 1000 to 5000 nM and 100 to 1000 nM, respectively.
For `CCC1(c2cccc(-c3cnn(C)c3)c2)C2=C(CC(C)(C)NC2=O)NC2N=NC(F)=C21` (configuration not stated) [US20250313563, Compound 948300] the same measures were 100 to 1000 nM and under 100 nM.
The corresponding values for `CC[C@@]1(c2cccc(-c3ccnc(O)c3)c2)C2=CN=NC2NC2=C1C(=O)CC(C)(C)C2` (some centres not stated) [US20250313563, Compound 943993] are over 5000 nM and over 5000 nM.
As to `CC1(C)CC(=O)C2=C(C1)NC1=C(CN=N1)C21CCN(S(=O)(=O)C2CCOCC2)CC1` [US20250313563, Compound 913127], the IC50 in assay [1] is < 100 nM and 100 to 1000 nM; in assay [2], under 100 nM.
As to `CC1(C)CCC2(CC1)C1=C(N=NC1)NC1=C2C(=O)CC(C)(C)C1` [US20250313563, Compound 884107], the half-inhibitory concentration (IC50) was 100 to 1000 nM in assay [1] and under 100 nM in assay [2].
For `CC[C@@]1(c2cccc(N(C)C(=O)c3cnn(C)c3)c2)C2=CN=NC2NC2=C1C(=O)CC(C)(C)C2` (some centres not stated) [US20250313563, Compound 913310] the same measures were under 100 nM and under 100 nM.
For `CC[C@@]1(c2cccc(CN(C)c3ccc(F)nc3)c2)C2=CN=NC2NC2=C1C(=O)CC(C)(C)C2` (some centres not stated) [US20250313563, Compound 932667] the same measures were over 5000 nM and over 5000 nM.
For `CC[C@@]1(c2cccc(-c3cn(C)nc3C)c2)C2=CN=NC2NC2=C1C(=O)CC(C)(C)C2` (some centres not stated) [US20250313563, Compound 945546], the half-inhibitory concentration (IC50) in assay [1] was < 100 nM and 100 to 1000 nM; in assay [2], under 100 nM.
As for `CCC1(c2cccc(N(CC3CCCC3)C(C)=O)c2)C2=CN=NC2NC2=C1C(=O)CC(C)(C)C2` (configuration not stated) [US20250313563, Compound 912166], the IC50 in assay [1] and in assay [2] was under 100 nM in each case.
On to `CC[C@]1(c2cccc(-c3c(C)nn(C)c3C)c2)C2=CN=NC2NC2=C1C(=O)NC(C)(C)C2` (some centres not stated) [US20250313563, Compound 947413], for which the values for the half-maximal inhibitory concentration (IC50) in assay [1] and in assay [2] were over 5000 nM and 1000 to 5000 nM, respectively.
The corresponding values for `CCC1(c2cccc(CS(C)(=O)=O)c2)C2=CN=NC2NC2=C1C(=O)CC(C)(C)C2` (configuration not stated) [US20250313563, Compound 945601] are 100 to 1000 nM and 100 to 1000 nM.
For `COc1ccc(S(=O)(=O)N2CCC3(CC2)C2=C(N=NC2)NC2=C3C(=O)CC(C)(C)C2)c(F)c1` [US20250313563, Compound 947255], the IC50 in assay [1] was < 100 nM and 100 to 1000 nM; in assay [2], under 100 nM.
Take `CCC1(c2cccc(-c3c(C)nn(C)c3C)c2)C2=C(CC(C)(C)NC2=O)NC2N=NC(C)=C21` (configuration not stated) [US20250313563, Compound 945598]: the IC50 in assay [1] and in assay [2] was under 100 nM throughout.
For `CCC1(c2cccc(C(F)(F)F)c2)C2=C(NC3=NN=CC31)c1ccccc1C2=O` (configuration not stated) [US20250313563, Compound 948205], the IC50 in assay [1] was < 100 nM and 100 to 1000 nM; in assay [2], < 100 nM and 100 to 1000 nM.
`CC[C@@]1(c2cccc(N(C)c3cccnn3)c2)C2=CN=NC2NC2=C1C(=O)CC(C)(C)C2` (some centres not stated) [US20250313563, Compound 911976]: the concentration for half-maximal inhibition (IC50) in assay [2] was in the range of 100 to 1000 nM.
On the same count and under the same terms, the result for `CC[C@]1(c2cccc(-c3cnn(C)c3C(F)(F)F)c2)C2=CN=NC2NC2=C1C(=O)NC(C)(C)C2` (some centres not stated) [US20250313563, Compound 948826] reads 1000 to 5000 nM.
With `Cn1ccc(S(=O)(=O)N2CCC3(CC2)C2=C(N=NC2)NC2=C3C(=O)NC(C)(C)C2)n1` [US20250313563, Compound 943961], the IC50 in assay [2] was < 100 nM and 100 to 1000 nM.
The same measure, in the same setting: the result for `CC(C)(C)CC1N=NC2=C1[C@](C)(c1cccc(S(C)(=O)=O)c1)C1=C(CC(C)(C)CC1=O)N2` (some centres not stated) [US20250313563, Compound 114687] reads 100 to 1000 nM; that for `CC[C@]1(c2cccc(Oc3ncccn3)c2)C2=CN=NC2NC2=C1C(=O)CC(C)(C)C2` (some centres not stated) [US20250313563, Compound 947818], 100 to 1000 nM; that for `CC[C@]1(c2cccc(-c3ccncc3C)c2)C2=CN=NC2NC2=C1C(=O)NC1(CCOCC1)C2` (some centres not stated) [US20250313563, Compound 948367], 100 to 1000 nM.
In turn, `CC[C@]1(c2cccc(C(F)(F)F)c2)C2=CN=NC2NC2=C1C(=O)N[C@@H](C(C)(C)C)C2` (some centres not stated) [US20250313563, Compound 945921] showed a concentration for half-maximal inhibition (IC50) in assay [2] of 1000 to 5000 nM.
On the same count and under the same terms, the result for `CC[C@]1(c2cccc(-c3ccnc(C)c3)c2)C2=C(CC(C)(C)CC2=O)NC2N=NC(C)=C21` (some centres not stated) [US20250313563, Compound 913051] reads 100 to 1000 nM.
On the same count and under the same terms, to `CC[C@@]1(c2cccc(C(F)(F)F)c2)C2=CN=NC2NC2=C1C(=O)NC[C@@H]2C` (some centres not stated) [US20250313563, Compound 945384] belongs 1000 to 5000 nM.
The same measure, in the same setting: to `CC[C@@]1(c2cccc(N(C)c3cccnc3)c2)C2=CN=NC2NC2=C1C(=O)CC(C)(C)C2` (some centres not stated) [US20250313563, Compound 874299] belongs 100 to 1000 nM.
In assay [2], `CC[C@]1(c2cccc(-c3ccnn3C)c2)C2=CN=NC2NC2=C1C(=O)N[C@@]1(CCCOC1)C2` (some centres not stated) [US20250313563, Compound 948366] came in with a half-maximal inhibitory concentration (IC50) of 1000 to 5000 nM.
Still for that read-out and setting: to `CC(C)(C)CC1=C2C(N=N1)NC1=C(C(=O)CC(C)(C)C1)C21COC1` (configuration not stated) [US20250313563, Compound 90709] belongs 1790 nM and 13700 nM; to `CC[C@@]1(c2cccc(N(C)c3ncccn3)c2)C2=C(N=NC2)NC2=C1C(=O)C(C)(C)C2` [US20250313563, Compound 952205], 1000 to 5000 nM; to `CC[C@@]1(c2cccc(C(F)(F)F)c2)C2=CN=NC2NC2=C1C(=O)N(c1cncnc1)CC2` (some centres not stated) [US20250313563, Compound 948380], 100 to 1000 nM.
